Reference: patent US11253495B2, “Pharmaceutical composition for treating excessive lactate production and acidemia” (priority 2018, dated 2022)

Tests used:
phenformin intoxication = assay: Phenformin intoxication and severe lactate acidemia in mice: survival time, serum lactate, serum pH; type: in vivo, CD-1 mice; conditions: doses of Table 4, vs G1 saline; for Serum lactate at 1 hour after phenformin intoxication: FIG. 14, combination vs single agent; for Serum pH value at 1 hour after phenformin intoxication: FIG. 15
Protocol: CD-1 mice (20-25 gram) were used. All mice were pre-treated according to the Table 4.
10 minutes after treatment, intoxication of severe lactate acidemia was induced by injecting phenformin chloride (concentration 20 mg/ml) at dose of 200 mg/kg intraperitoneally. At 1 hour after phenformin injection, serum lactate and pH were measured.

cardiac arrest rat model = assay: Cardiac arrest rat model with CPR: mortality, brain death score, serum lactate and pH, organ ATP; type: in vivo; conditions: for Serum lactate: FIG. 2, 24 hours after ROSC or right before death, vs G1 saline, combination vs single agent; for Mortality at 24 hours after ROSC: rats, 7 min cardiac arrest, iv treatment 10 minutes after ROSC, doses of Table 1, n=8 each group
[1] = system: focal cerebral ischemia rat model; assay: Focal cerebral ischemia rat model (3 h MCA occlusion, 21 h reperfusion): behavioral deficit, infarct size, serum lactate, brain ATP; type: in vivo; conditions: FIG. 10; 24 hours after ischemia; vs G1 saline; combination vs single agent
Protocol: 180-230 g CD rats were used. Ketamine/xylazine 30 mg/kg ip was given for anesthesia in each rat. A midline incision on the neck was made. The left common carotid artery, the external carotid artery (ECA) and the internal carotid artery (ICA) were exposed. The ECA was ligated and severed. Focal cerebral ischemia was produced by a 3.0 nylon suture that was advanced from the ECA to ICA to block the origin of left middle cerebral artery. The nylon suture was left in place to induce focal cerebral ischemia on left hemisphere supplied by middle cerebral artery. The ischemia lasted for 3 hours, the nylon suture was then removed to allow blood reperfusion for 21 hours.
This treatment time point is one hour before restoring blood flow (reperfusion).
At 24 hours after cerebral ischemia, each rat was evaluated for behavioral deficits. A score of 0-4 was used to assess the motor and behavioral changes. Score 0: No apparent deficits, Score 1: Contralateral forelimb flexion, Score 2: Decreased grip of the contralateral forelimb when the tail is pulled, Score 3: Spontaneous movement in all directions; contralateral circling only if pulled by tail and Score 4: Spontaneous contralateral circling.
At 24 hours after ischemia, blood samples were collected, serum lactate, was measured using blood chemistry analyzer. LDH was measured using colorimetric method.
After blood samples collection, each rat was euthanized. The brain was excised. A small piece of the cortex in ischemic core was obtained, weighed and then homogenized at 0° C. The ATP content was evaluated using ATP content measurement using luciferase-luciferin luminescence detection assay.
Each brain was immediately cut into 6 coronal sections (1 mm in thickness) and stained with 1% 2,3,5-triphenyltetrazolium chloride (TTC) in PBS solution at 37° C. for 10 minutes. The infarct size was identified as the non-TTC-stained area, the infarction percentage (%) was calculated by the ratio of area of infarction size to area of whole brain.

N#Cc1cc(NC(=O)C(=O)O)c(Cl)c(NC(=O)C(=O)O)c1.NC(CO)(CO)CO.NC(CO)(CO)CO [Lodoxamide tromethamine]
Serum lactate at 1 hour after phenformin intoxication (phenformin intoxication): reduce lactate production

Cc1ncc(COP(=O)(O)O)c(C=O)c1O [PLP, pyridoxal 5′-phosphate]
Serum lactate (cardiac arrest rat model): reduce lactate production
Serum lactate content [1]: reduce lactate production
Serum lactate at 1 hour after phenformin intoxication (phenformin intoxication): reduce lactate production

N[C@@H](CCC(=O)[O-])C(=O)[O-].[Na+].[Na+] [Sodium glutamate]
Serum lactate (cardiac arrest rat model): reduce lactate production
Mortality at 24 hours after ROSC (cardiac arrest rat model): 1 out of 8
Serum lactate content [1]: reduce lactate production
Serum lactate at 1 hour after phenformin intoxication (phenformin intoxication): reduce lactate production
Serum pH value at 1 hour after phenformin intoxication (phenformin intoxication): particularly effective

NC(=O)C(=O)[O-].[Na+] [Sodium oxamate]
Serum lactate (cardiac arrest rat model): reduce lactate production
Mortality at 24 hours after ROSC (cardiac arrest rat model): 1 out of 8
Serum lactate content [1]: reduce lactate production
Serum lactate at 1 hour after phenformin intoxication (phenformin intoxication): reduce lactate production

O=C([O-])CC(=O)C(=O)O.[Na+] [oxaloacetate, Sodium oxaloacetate]
Serum lactate (cardiac arrest rat model): reduce lactate production
Serum lactate content [1]: reduce lactate production
Serum lactate at 1 hour after phenformin intoxication (phenformin intoxication): reduce lactate production

N[C@@H](CC(=O)[O-])C(=O)[O-].[Na+].[Na+] [sodium aspartate, Sodium Aspartate]
Serum lactate (cardiac arrest rat model): reduce lactate production
Serum lactate content [1]: reduce lactate production
Serum lactate at 1 hour after phenformin intoxication (phenformin intoxication): reduce lactate production
Serum pH value at 1 hour after phenformin intoxication (phenformin intoxication): particularly effective
